Results on seven compounds are retold here after the supplement of paper PMC11061612.

Test [1] concerns SNG-M (Endometrial Carcinoma). The test can be described thus: Bliss excess, mean over the matrix (fraction); higher = more synergy. The gist of the method:
(§1)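 Cell lines in DMEM/F12 or RPMI with 10% FBS were plated in 1536-well plates, held 24 hours at 37°C, 5% CO2, then given two-drug dose matrices for 72 hours (DMSO typically 0.2%). Viability was read by CellTiter-Glo 2.0 luminescence and scaled as inhibition from 0 (vehicle wells) to 1 (blank wells). Combination Emax is the second-highest inhibition in the matrix; Bliss excess is observed combination effect minus expected EA + EB − EA·EB, EA and EB being single-agent effects.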

Test [2] has as its system SKN-3 (Head and Neck Carcinoma). Described as above. Summed up: as §1
The test system of test [3] is HCC1143 (Breast Carcinoma). The description is as above. Summed up: as §1
Test [4] concerns HLE (Hepatocellular Carcinoma). The test is described as above. Summed up:
as §1

Test [5] relates to SNU-61 (Colorectal Carcinoma). Described as above. The gist of the method:
as §1

Test [6] concerns BICR78 (Oral Cavity Carcinoma). The test is described as above. Summed up: as §1
The test system of test [7] is SW48 (Colorectal Carcinoma). The test is described as above. The gist of the method: as §1
Test [8] relates to TYK-nu (Ovarian Carcinoma). Described as above. The gist of the method: as §1
Test [9] relates to P31-FUJ (Acute Myeloid Leukemia). Described as above. Summed up: as §1
The test system of the next test is MSTO-211H (Mesothelioma). The test is described as above. Summed up:
as §1

Test [10] concerns KG-1 (Acute Myeloid Leukemia). The test is described as above. Summed up: as §1
For test [11], the system named is WSU-DLCL2 (B-Cell Non-Hodgkin's Lymphoma). Described as above. Summed up: as §1
For the next test, the system named is HuO9 (Osteosarcoma). The test is described as above. Summed up:
as §1

Test [12] has as its system CAL-39 (Other Solid Carcinomas). The description is as above. The gist of the method: as §1
Test [13] concerns HCC1143 (Breast Carcinoma). The test can be described thus: combination Emax (second highest fraction inhibited in the dose matrix, 72 h); higher = more inhibition; extreme values may be limits of the assay. The gist of the method: as §1
Test [14] concerns SK-LMS-1 (Other Solid Carcinomas). The test is described as above. Summed up:
as §1

Test [15] relates to PA-TU-8902 (Pancreatic Carcinoma). The test is described as above. Summed up:
as §1

Test [16] deals with EFM-192A (Breast Carcinoma). The description is as above. Summed up:
as §1

The test system of test [17] is YT (Other Blood Carcinomas). The test is described as above. Summed up:
as §1

For test [18], the system named is 647-V (Bladder Carcinoma). The test is described as above. Summed up:
as §1

The structures appear in SMILES notation.
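For Bliss excess, mean over the matrix in this document: after 72 h of two-drug dosing.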

Take `COc1nnc2ccc(N3CCC(c4ccc(OCCN5CCN(C)C(=O)[C@H]5C)cc4)CC3)nn12` [AZD5153] + Cn1cnc2c(F)c(Nc3ccc(Br)cc3Cl)c(C(=O)NOCCO)cc21 [Selumetinib] (first compound max 1 µM, 7x7, partner max 10 µM): the Bliss excess in test [1] is 0.0042; in test [2] it was -0.019; in [3], 0.0561; in [4], 0.0073; in test [5] it was 0.0407; in test [6], -0.0454. The Bliss excess in test [7] was 0.0619; in test [8], -0.044; in test [9], 0.0339; in the test on MSTO-211H (Mesothelioma), 0.007; in test [10] it was 0.024; in [11], -0.0365. Moreover, the values for the Bliss excess (in the test with HuO9 (Osteosarcoma); in test [12]) were 0.0052 and -0.0175, respectively. For the same compound, the “combination Emax” value in test [13] came to 0.513; in [14] it was 0.666; in test [15], 0.527; in test [16] it was 0.304; in test [17], 0.693; in test [18] it was 0.61.

Turning to `Cc1c2c(nn1C)CSCc1cc(n(C)n1)CSc1cc(c3ccccc3c1)OCCCc1c(C(=O)O)n(C)c3c-2c(Cl)ccc13` [AZD5991] + C1CN(CCC1(C(=O)N[C@@H](CCO)C2=CC=C(C=C2)Cl)N)C3=NC=NC4=C3C=CN4 [Capivasertib] (first compound max 1 µM, 7x7, partner max 3 µM), the Bliss excess in [1] is -0.0065; in [2], -0.0285; in [3] it was 0.0114; in test [4] it was 0.0341; in [5] it was -0.0174; in [6], -0.0198. Also, the Bliss excess in [7] is -0.034; in test [8], 0.0172; in [9] it was 0.0182; with MSTO-211H (Mesothelioma) it was -0.0066; in test [10] it was -0.0164; in [11], 0.013. In addition, the figures for the Bliss excess (with HuO9 (Osteosarcoma); in [12]) were 0.0085 and -0.0203, respectively. The “combination Emax” value in [13] worked out at 0.252; in [14] it was 0.302; in [15] it was 0.174; in [16], 0.67; in test [17], 1; in test [18], 0.676.

In the case of `Cc1c2c(nn1C)CSCc1cc(n(C)n1)CSc1cc(c3ccccc3c1)OCCCc1c(C(=O)O)n(C)c3c-2c(Cl)ccc13` [AZD5991] + C=CCn1c(=O)c2cnc(Nc3ccc(N4CCN(C)CC4)cc3)nc2n1-c1cccc(C(C)(C)O)n1 [AZD1775] (first compound max 1 µM, partner max 1 µM), the Bliss excess in test [1] was -0.0456; in test [2], 0.0116; in [3] it was 0.0689; in test [4], 0.0017; in test [5], -0.0118; in test [6] it was -0.0034. In addition, the Bliss excess in test [7] was -0.0318; in test [8] it was 0.0279; in [9], -0.0127; in the test on MSTO-211H (Mesothelioma), 0.0284; in test [10], 0.0391; in test [11], -0.0245. In addition, the Bliss excess in the test with HuO9 (Osteosarcoma) is -0.0292; in [12], 0.0957. The “combination Emax” value in test [13] came to 0.797; in test [14], 0.431; in test [15], 0.31; in [16], 0.71; in [17], 0.998; in test [18], 0.978.

Consider `Cc1c2c(nn1C)CSCc1cc(n(C)n1)CSc1cc(c3ccccc3c1)OCCCc1c(C(=O)O)n(C)c3c-2c(Cl)ccc13` [AZD5991] + CC1(C)CCC(CN2CCN(c3ccc(C(=O)NS(=O)(=O)c4ccc(NCC5CCOCC5)c([N+](=O)[O-])c4)c(Oc4cnc5[nH]ccc5c4)c3)CC2)=C(c2ccc(Cl)cc2)C1 [Venetoclax] (first compound max 1 µM, 7x7, partner max 1 µM), for which the Bliss excess is -0.027 in test [1]; -0.03 in [2]; 0.0051 in test [3]; -0.0061 in [4]; -0.0143 in [5]; -0.0106 in test [6]. The Bliss excess is 0.0059 in [7]; -0.0144 in test [8]; 0.137 in test [9]; -0.0455 with MSTO-211H (Mesothelioma); 0.119 in test [10]; 0.173 in test [11]. The Bliss excess with HuO9 (Osteosarcoma) is 0.0182; in test [12] it was -0.0298. Further, the “combination Emax” value in test [13] stood at 0.252; in test [14] it was 0.115; in [15] it was 0.139; in test [16], 0.873; in [17], 1; in test [18], 0.618.

Regarding `Cc1c2c(nn1C)CSCc1cc(n(C)n1)CSc1cc(c3ccccc3c1)OCCCc1c(C(=O)O)n(C)c3c-2c(Cl)ccc13` [AZD5991] + CCN(CCO)CCCOc1ccc2c(Nc3cc(CC(=O)Nc4cccc(F)c4)[nH]n3)ncnc2c1 [AZD2811] (first compound max 1 µM, 7x7, partner max 1 µM), the Bliss excess was 0.0446 in test [1]; 0.0134 in [2]; 0.0514 in test [3]; -0.0018 in test [4]; 0.0315 in test [5]; 0.0088 in test [6]. Besides, the Bliss excess in test [7] was -0.0063; in test [8], 0.0438; in [9], -0.0193; in the test on MSTO-211H (Mesothelioma) it was 0.0477; in test [10] it was 0.032; in test [11], 0.0804. Besides, the Bliss excess is -0.0035 in the test with HuO9 (Osteosarcoma) and -0.0192 in test [12]. In addition, the “combination Emax” value in test [13] worked out at 0.371; in [14] it was 0.272; in test [15] it was 0.212; in test [16], 0.699; in [17], 1; in [18], 0.834.

For the compound `Cc1c2c(nn1C)CSCc1cc(n(C)n1)CSc1cc(c3ccccc3c1)OCCCc1c(C(=O)O)n(C)c3c-2c(Cl)ccc13` [AZD5991] + CN(C)CCCOc1ccc(-c2ccc3ncc4c(c3c2)n(C2CCOCC2)c(=O)n4C)cn1 [AZD0156] (first compound max 1 µM, 7x7, partner max 1 µM), the Bliss excess is 0.01 in test [1]; -0.0173 in test [2]; -0.0287 in test [3]; 0.0424 in [4]; -0.0047 in test [5]; 0.0199 in [6]. Besides, the Bliss excess is 0.0051 in test [7]; -0.034 in test [8]; 0.0014 in test [9]; -0.0129 in the test with MSTO-211H (Mesothelioma); 0.0115 in test [10]; -0.0033 in test [11]. Moreover, the values for the Bliss excess (in the test on HuO9 (Osteosarcoma); in test [12]) were -0.0171 and -0.0786, respectively. Further, the “combination Emax” value in test [13] amounted to 0.364; in test [14], 0.205; in [15], 0.192; in [16] it was 0.587; in test [17] it was 1; in [18] it was 0.878.

Turning to `Cc1c2c(nn1C)CSCc1cc(n(C)n1)CSc1cc(c3ccccc3c1)OCCCc1c(C(=O)O)n(C)c3c-2c(Cl)ccc13` [AZD5991] + C[C@@H]1COCCN1C2=NC(=NC(=C2)C3(CC3)[S@](=N)(=O)C)C4=C5C=CNC5=NC=C4 [AZD6738] (first compound max 1 µM, 7x7, partner max 10 µM), the Bliss excess was 0.0516 in [1]; 0.0678 in [2]; 0.0032 in [3]; 0.0075 in test [4]; 0.0435 in test [5]; -0.0327 in [6]. Further, the Bliss excess in test [7] was -0.0259; in test [8] it was -0.0265; in [9] it was -0.0033; in the test with MSTO-211H (Mesothelioma), 0.0032; in test [10] it was 0.0155; in [11], 0.0004. Besides, the results for the Bliss excess (in the test with HuO9 (Osteosarcoma); in test [12]) were 0.0259 and -0.0411, respectively. Moreover, the “combination Emax” value is 0.827 in [13]; 0.453 in [14]; 0.26 in [15]; 0.735 in test [16]; 1 in test [17]; 0.92 in test [18].
